Test system: person's skin
Test: Experimentation with ingredient concentrations in the ointment formulation applied to a person's skin
Assay type: in vivo, human
Settings: Zinc Oxide amount lesser than 4.70% of the formulation
Text: The ointment formulation includes an occlusive and nourishing ingredient in an amount configured to reduce moisture evaporation from and seal the skin. The specific occlusive and nourishing ingredient in the subject ointment formulation may be Lanolin. Lanolin is additionally selected for its ability to supply the skin with a majority of the 23 proteinogenic, i.e., protein-building, amino acids, which combine into peptide chains to form the building blocks of a vast array of proteins. In an exemplary 126.0 ml volume sample of the ointment formulation, the specific volume of the Lanolin ingredient was 103.53 ml, or 82.17%. Although Lanolin made up 82.17% of the exemplary sample, the allowable range of the Lanolin ingredient in the ointment formulation is approximately 74-85%.
The ointment formulation having the specific disclosed volume of Lanolin is for a moderate to severe condition of the skin. Although the amount of Lanolin may be increased for more severe conditions, the disclosed specific concentration of 82.17% is near the maximum that may be used while maintaining the necessary amounts of the other ingredients. Accordingly, as the volume of Lanolin is adjusted for severity of the particular skin condition, the amounts of other ingredients to be described with specificity below would have to be adjusted accordingly. […]

## [O]=[Zn] [Zinc Oxide]
  effectiveness: has not shown to be effective

From patent US20140271920A1, “SKIN OINTMENT FORMULATION” (priority 2013, published 2014)
